Read-outs that look alike come from different tables or passages of the source.
How the values were obtained:
[1] = Alamar Blue cell viability assay, Caco-2; type: cell-based, human; conditions: human, Caco-2; 48 h; concentration not given; read-out: cell viability, Caco-2 (% of control)
Procedure: (§1) The safety profile of T. carnosus AD and HE extracts was evaluated in Caco-2 and HepG2 cells using an Alamar Blue® (Invitrogen; Alfagene, Lisboa, Portugal) assay. An initial screening was performed for all extracts at concentrations ranging between 100 and 1000 µg/mL. Due to the higher toxicity of the HE extracts, which was previously described for various extracts of Thymus species using the same extraction methods (e.g., T. mastichina and Thymus zygis), a different set of concentrations was used for the HE extracts (between 100 and 300 µg/mL for Caco-2 cells and 50 and 150 µg/mL for HepG2 cells). Figure 1 presents the data related to the cell viability assays in Caco-2 (panels A–E) and HepG2 cells (panels F–J) exposed to T. carnosus extracts, as indicated.
(§2) The safety profile of T. carnosus extracts was assessed in Caco-2 and HepG2 cells. Caco-2 (human colon adenocarcinoma cell line) were obtained from CLS (Cell Lines Service, Eppelheim, Germany), and HepG2 (human hepatocellular carcinoma cell line) were obtained from ATCC (American Type Culture Collection, Manassas, VA, USA).
(§3) Cell culture maintenance, handling, subculturing, and seeding were performed as described by Silva et al., 2020 [5], and cell viability was assessed using an Alamar Blue® assay, as described by Andreani et al., 2014 [64]. Concentrations ranged between 100 and 1000 µg/mL for AD extracts in both cell lines and 100 to 300 µg/mL or 50 to 150 µg/mL for HE extracts in Caco-2 and HepG2 cells, respectively. The effect of individual compounds on cell viability was assessed for concentrations ranging from 50 to 300 µM. All test solutions were prepared by diluting the samples in FBS-free culture media from the stock solutions described in Section 3.2, just prior to being used.
(§4) The results are presented as mean ± SD of at least three independent assays. The calculation of IC50 values was performed as described by Silva et al., 2020 [5]. Data analysis, graphical design, and statistical analysis were performed using Microsoft Office Excel (Professional Plus 2019; Microsoft Corporation, Washington, DC, USA) and GraphPad Prism (Version 8; GraphPad Software Inc., San Diego, CA, USA). Flow cytometry data analysis was performed using BD Accuri™ C6 Software, version 1.0.264.21 (Becton Dickinson, San Diego, CA, USA).

Caco-2 cells [2] = test: Alamar Blue cell viability assay, Caco-2; type: cell-based, human; conditions: for IC50: Homo sapiens
Procedure: as §1, §2, §3, §4

[3] = Alamar Blue cell viability assay, HepG2; type: cell-based, human; conditions: human, HepG2 cells, concentration not given
Procedure: as §1, §2, §3, §4

HepG2 cells [4] = test: Alamar Blue cell viability assay, HepG2; type: cell-based, human; conditions: for IC50: Homo sapiens
Procedure: as §1, §2, §3, §4

Caco-2 cells [5] = test: Intracellular ROS (DCFDA, flow cytometry), Caco-2; type: cell-based; conditions: compound 50 µM, 24 h
Procedure: (§5) The cells were then equally divided for each assay.
(§6) Intracellular ROS level assessment was performed as described by Silva et al., 2022 [65], using dichlorodihydrofluorescein diacetate (DCFDA). Cells obtained in the previous step were centrifuged, the supernatant discarded, and 200 µL of DCFDA (10 µM in FBS-free DMEM) was added. Cells were incubated for 45 min (37 °C, in the dark), washed to remove excess probe, and resuspended in PBS for data acquisition.

HepG2 cells [6] = test: Intracellular ROS (DCFDA, flow cytometry), HepG2; type: cell-based, human; conditions: compound 50 µM, 24 h
Procedure: as §5, §6

HepG2 cells [7] = test: Mitochondrial membrane potential (JC-1, flow cytometry), HepG2; type: cell-based, human
Procedure: (§7) Flow cytometry was used to analyze the effect of T. carnosus extracts on intracellular ROS, modulation of mitochondrial membrane potential (MMP), cell cycle arrest, and apoptotic/necrotic cell death induction.
(§8) Both one- and two-color assays were performed using a BD Accuri™ C6 cytometer (Becton Dickinson, Franklin Lakes, NJ, USA), and 10,000 gated events were collected from each sample [1]. For flow cytometry assays, cells were handled as described previously but seeded at a density 5 × 10^4 cells/mL (750 μL/well) in 12-well plates. Caco-2 and HepG2 cells were incubated for 24 h with the extracts (100 µg/mL) or individual phytochemicals (50 µM) diluted in FBS-free culture media h. After incubation, test solutions were removed; the cells were washed with PBS and detached from the plates using trypsin-EDTA. Once transferred to centrifuge tubes, the cells were centrifuged (bench micro-centrifuge; 3000 rpm; 3 min), the supernatant was discarded, and a new wash cycle was performed. The cells were then equally divided for each assay. A negative control was used in all assays consisting of nonexposed cells incubated only with culture media.
(§9) Mitochondrial membrane potential (MMP) was evaluated using 5,5″,6,6″-tetrachloro-1,1″,3,3″-tetraethylbenzimidazolylcarbocyanineiodide (JC-1). Cells were processed as described for DCFDA but incubated with 200 µL of JC-1 (2 µM, in FBS-free DMEM) for 20 min (37 °C, in the dark).

Caco-2 cells [8] = test: Annexin V-FITC/PI apoptosis/necrosis, Caco-2; type: cell-based; conditions: compound 50 µM, 24 h
Procedure: as §5
(§10) For the assessment of apoptotic/necrotic cell death, an Annexin V-FITC (Thermo Fisher Scientific, Waltham, MA, USA) and propidium iodide (PI; Merck, Darmstadt, Germany) double-staining assay was used to evaluate the apoptotic/necrotic cell death induced by T. carnosus extracts and by individual phytochemicals, as described previously. Briefly, after detachment and washing, the supernatant was discarded, and 200 µL of Annexin V-FITC (1:200 dilution in Annexin-binding buffer [10 mM HEPES sodium salt, 150 mM NaCl, 5 mM KCl, 5 mM MgCl2, and 1.8 mM CaCl2; pH = 7.4]) was added. Cells were incubated for 20 min (room temperature, in the dark). After incubation, 5 µL of propidium iodide (PI; 50 µg/mL) was added, the cells were incubated for 5 min on ice (in the dark), and the data were acquired.

HepG2 cells [9] = test: Annexin V-FITC/PI apoptosis/necrosis, HepG2; type: cell-based, human; conditions: compound 50 µM, 24 h
Procedure: as §5, §10

[10] = tested on: human lung cancer (A549) cells; conditions: cited from earlier work
[11] = tested on: normal and tumoral human nasopharyngeal cells; parameters: method as in PMID 33277860; conditions: 24 h; cited from earlier work
Caco-2 cells [12] = conditions: positive control, 5 µM
Procedure: as §7, §8, §9

Caco-2 cells [13] = test: Cell cycle arrest (PI, flow cytometry), Caco-2; type: cell-based; conditions: compound 50 µM, 24 h
Procedure: as §5
(§11) Cell cycle arrest assessment was performed as described in [1]. Cells were processed as described above until cell detachment and centrifuged, after which the second washing step was performed with ice-cold PBS (0 °C). After centrifugation, the supernatant was discarded, and cells were fixed with 500 µL of ethanol:PBS solution (70:30, % v/v, previously cooled at −20 °C) for at least 4 h at −20 °C. After fixation, two washing cycles were performed: the first with ice-cold PBS (0 °C) and the second with room-temperature PBS, followed by the addition of 200 µL of a PBS solution containing PI (50 µg/mL), RNAse A (50 µg/mL), and Triton X-100 (0.1%). Cells were incubated for 30 min at 37 °C, and then cells were washed once with PBS to remove the staining solution. After resuspension in PBS, the data were acquired.

HepG2 cells [14] = test: Cell cycle arrest (PI, flow cytometry), HepG2; type: cell-based, human; conditions: compound 50 µM, 24 h
Procedure: as §5, §11

[15] = tested on: nasopharyngeal carcinoma cells NPC-039; parameters: method as in PMID 34165247; conditions: cited from earlier work
[16] = tested on: nasopharyngeal carcinoma cells NPC-BM; parameters: method as in PMID 34165247; conditions: cited from earlier work
Caco-2 cells [17] = conditions: cited from earlier work
HepG2 cells [18] = conditions: cited from earlier work
[19] = tested on: hepatocarcinoma cells (HuH7); parameters: method as in PMID 20415421; conditions: 20-80 µM; cited from earlier work
[20] = parameters: method as in PMID 31344882, PMID 26042707; conditions: cited from earlier work

Compound: O=C1C[C@@H](c2ccc(O)c(O)c2)Oc2cc(O)cc(O)c21 [Eriodictyol, eriodictyol]
- viability at 48 h [1]: ~19%
- reduction of Caco-2 cell viability (Caco-2 cells [2]; 48 h, concentration not given): ~ 81%
- IC50 (Caco-2 cells [2]; Caco-2, 24 h, read-out: IC50 (µM) - Caco-2 cells: 24 h): 245 ± 13.7 µM
- IC50 (Caco-2 cells [2]; Caco-2, 48 h, read-out: IC50 (µM) - Caco-2 cells: 48 h): 82.5 µM
- viability at 24 h ([3]; 24 h): 56.9%
- viability at 48 h ([3]; 48 h): 43.2%
- IC50 (HepG2 cells [4]; HepG2, 24 h, read-out: IC50 (µM) - HepG2 cells: 24 h): > 300 µM
- IC50 (HepG2 cells [4]; HepG2, 48 h, read-out: IC50 (µM) - HepG2 cells: 48 h): 231 ± 23.2 µM
- change in intracellular ROS, Caco-2 (Caco-2 cells [5]): neither RA nor eriodictyol induced ROS increases
- change in intracellular ROS, HepG2 (HepG2 cells [6]): significant (p < 0.05) increase in intracellular HepG2 ROS levels
- MMP modulation, HepG2 (HepG2 cells [7]; compound 50 µM, 24 h): hyperpolarization of the mitochondrial membrane
- cell death induction, Caco-2 (Caco-2 cells [8]): induced apoptosis and necrosis
- cell death induction, HepG2 (HepG2 cells [9]): induced apoptosis and necrosis
- cell cycle effect, A549 [10]: cell cycle arrest in the G2/M phase
- concentrations reducing the MMP in A549 cells [10]: ≥ 25 µM
- concentrations inducing cytotoxicity, nasopharyngeal cells [11]: ≥ 5 µM

Compound: N#CC(C#N)=NNc1ccc(OC(F)(F)F)cc1 [FCCP, carbonyl cyanide p-trifluoromethoxyphenylhydrazone]
- JC-1 FL2/FL1 ratio normalized by negative control, Caco-2 (Caco-2 cells [12]): 0.06 ± 0.01
- reduction in MMP, Caco-2 (Caco-2 cells [12]): ~ 94%
- JC-1 FL2/FL1 ratio normalized by negative control, HepG2 (HepG2 cells [7]; positive control, 5 µM): 0.10 ± 0.01
- reduction in MMP, HepG2 (HepG2 cells [7]; positive control, 5 µM): ~ 90%

Compound: O=c1cc(-c2ccc(O)c(O)c2)oc2cc(O[C@@H]3O[C@H](CO)[C@@H](O)[C@H](O)[C@H]3O)cc(O)c12 [Luteolin-7-O-glucoside, luteolin-7-O-glucoside]
- concentrations reducing Caco-2 cell viability (p < 0.05) (Caco-2 cells [2]; Caco-2): ≥ 75 µM
- reduction in HepG2 cell viability (HepG2 cells [4]; 300 µM, 48 h): ~ 30%
- concentrations giving significant effect on HepG2 cell viability (HepG2 cells [4]; 48 h exposure): ≥ 100 µM
- change in intracellular ROS, HepG2 (HepG2 cells [6]): significant (p < 0.05) increase in intracellular HepG2 ROS levels
- cell cycle effect, Caco-2 (Caco-2 cells [13]): cell cycle arrest in G0/G1
- cell cycle effect, HepG2 (HepG2 cells [14]): induced cell cycle arrest in both cell lines but in different phases
- cell death induction, Caco-2 (Caco-2 cells [8]): did not induce cell death
- cell death induction, HepG2 (HepG2 cells [9]): did not induce cell death
- MMP modulation, NPC-039 ([15]; 20, 40 and 80 µM): MMP depolarization
- cell cycle effect, NPC-039 [15]: cell cycle arrest in the S and G2/M phases
- MMP modulation, NPC-BM ([16]; 20, 40 and 80 µM): MMP depolarization
- cell cycle effect, NPC-BM [16]: cell cycle arrest in the S and G2/M phases
- IC50 (Caco-2 cells [17]; read-out: concentration reducing Caco-2 cell viability to 50% of control, 48 h): ~55 µM
- IC50 (HepG2 cells [18]; read-out: concentration reducing HepG2 cells' viability to ~50%): 44.6 µM

Compound: CC1(C)CC[C@]2(C(=O)O)CC[C@]3(C)C(=CC[C@@H]4[C@@]5(C)CC[C@H](O)C(C)(C)[C@@H]5CC[C@]43C)[C@@H]2C1 [Oleanolic acid, oleanolic acid]
- IC50 (Caco-2 cells [2]; Caco-2, 24 h exposure, read-out: IC50 (µM) - Caco-2 cells: 24 h): 78.5 ± 3.57 µM
- IC50 (Caco-2 cells [2]; Caco-2, 48 h exposure, read-out: IC50 (µM) - Caco-2 cells: 48 h): 45.9 ± 2.47 µM
- IC50 (HepG2 cells [4]; HepG2, 24 h exposure, read-out: IC50 (µM) - HepG2 cells: 24 h): 150 ± 7.66 µM
- change in intracellular ROS, Caco-2 (Caco-2 cells [5]): increase in ROS
- change in intracellular ROS, HepG2 (HepG2 cells [6]): significant (p < 0.05) increase in intracellular HepG2 ROS levels
- cell cycle effect, Caco-2 (Caco-2 cells [13]): cell cycle arrest in G0/G1
- percentage of cells in late apoptosis, Caco-2 (Caco-2 cells [8]): ~ 29%
- percentage of cells in necrosis, Caco-2 (Caco-2 cells [8]): ~ 50%
- cell death induction, HepG2 (HepG2 cells [9]): slight reduction in the percentage of healthy cells
- MMP modulation, HuH7 [19]: reduce MMP
- lipophilicity [20]: high lipophilicity
- water solubility [20]: poor water solubility
- concentrations reducing Caco-2 cell viability (Caco-2 cells [17]; 24 h): ≥ 5 µM
- concentrations reducing HepG2 cell viability (HepG2 cells [18]; 48 h): ≥ 2 µM
- IC50 (HepG2 cells [18]; read-out: IC50, HepG2 cells, 72 h): > 100 µM

Compound: COc1cc(/C=C/C(=O)CC(=O)/C=C/c2ccc(O)c(OC)c2)ccc1O [curcumin]
- MMP modulation, HepG2 (HepG2 cells [18]; 27-108 µM): mitochondrial membrane hyperpolarization in HepG2 cells, followed by depolarization

Compound: O=c1c(O[C@@H]2O[C@H](CO)[C@@H](O)[C@H](O)[C@H]2O)c(-c2ccc(O)c(O)c2)oc2cc(O)cc(O)c12 [quercetin-3-O-glucoside]
- cytotoxicity in Caco-2 cells relative to quercetin aglycone (Caco-2 cells [17]): lower cytotoxicity in Caco-2 cells than aglycone

Compound: O=C(O)[C@H]1O[C@@H](Oc2c(-c3ccc(O)c(O)c3)oc3cc(O)cc(O)c3c2=O)[C@H](O)[C@@H](O)[C@@H]1O [quercetin-3-O-glucuronide]
- cytotoxicity in Caco-2 cells relative to quercetin aglycone (Caco-2 cells [17]): lower cytotoxicity in Caco-2 cells than aglycone
